Read-outs that look alike come from different tables or passages of the source.
Tests used:
[1] = tested on: DTH of mice induced by DNFB; assay: Delayed type hypersensitivity of mouse ear induced by DNFB; type: in vivo, NIH mice
Experimental: Totals of 50 NIH mice with equal sex were randomly divided into 5 groups. Each mouse was sensitized with 0.025 ml DNBF (1%) at day 0. Five days later […], 0.01 ml DNFB was pasted as aggression on the right ear. The mice were sacrificed 24 hours later and the weight of left and right ears were measured, the difference of which was used to evaluate reaction intensity of the delayed type hypersensitivity (DTH) of the mice.
In this experiment, AHT-323 was given for consecutive six days (0˜5 days) from the day when the mice were first sensitized with DNFB.
Totals of 60 NIH mice were used. AHT-323 treatments were given at different intervals as the following: from d-2 (2 days before first sensitizing) to Day 0 (first sensitization day), from Day-2 to Day 2 (2 days after first sensitizing), from Day-2 to Day5, and from Day 0 to Day 4, respectively. The swelling rate of mouse ear was determined.
Another 50 NIH mice were used to compare AHT-323 with cyclophosphamide or cytoxan (Cy) on the effects on DTH of mice. The mice were treated with either AHT-323 or Cy alone or both at different intervals.

[2] = tested on: hemolysin antibody formation; assay: Hemolysin antibody formation in SRBC-immunized normal mice; type: in vivo, mice (NIH, ICR, KM); conditions: dosing day 0˜7; for Hymolysin Antibody / inhibition at 20 mg/kg: 0.02 g/kg
Experimental: Totals of 150 mice (50 NIH mice, 50 ICR mice and 50 KM mice) weighing 18-22 g with equal sex distribution were divided into 10 groups, each of which was immunized with 0.2 ml 5% sheep red blood cells (SRBC) i.p. once. AHT-323 was given from d0 to d6. Seven days after immunization, mice were sacrificed and blood was taken from the eyeball. Assay for hemolysin antibody formation was performed and its inhibition rate was evaluated.

[3] = tested on: plaque forming cells (PFC) and serum IgM of AA mice; assay: Humoral immunity of AA mice (PFC, IgM); type: in vivo, NIH mice; conditions: 0.020 g/kg
Experimental: An experimental model of adjuvant arthritis was established in NIH mice weighing 20±2 g by intradermal injection of 0.05 ml Freund's Complete Adjuvant (FCA) to the planter of hind paw. Three weeks later, the mice were treated with different dose of AHT-323 for 5 days. At the same time, they were sensitized with 0.5 ml 10% SRBC i.p. The mice were sacrificed 5 days later. The spleen cells were prepared and the plaque forming cells (PFC) were measured, the serum was prepared and IgM was determined.

TNFα = TNFα content of peritoneal macrophage suspension after oral dosing (ELISA); type: in vivo, ICR mice; conditions: 0.02 g/kg once daily 10 days
Experimental: (§1) Total of 50 ICR mice weighing 18˜22 g with equal sex were divided into 5 groups. The mice were administrated orally with different doses of AHT-323 or control (0.5% tragacanth) once daily for 10 days. 24 hours after the last dosing, the peritoneal macrophage suspensions were prepared to measure TNFα content and IL-2 activity.
An ELISA assay was performed using anti-TNFα monoclonal antibody. The TNFα concentration was calculated based on the OD value at 450 nm.

IL-2 = IL-2 activity after oral dosing (IL-2 dependent CTLL cells); type: in vivo, ICR mice; conditions: 0.02 g/kg once daily 10 days
Experimental: as §1
The IL-2 activity of macrophage was measured with IL-2 dependent CTLL cells by ELISA.

IL-1 = IL-1 activity in peritoneal macrophages after oral dosing (radio-ELISA); type: in vivo, NIH mice; conditions: 0.02 g/kg p.o. once daily 10 days
Experimental: (§2) Totals of 50 NIH mice weighing 18-22g with equal sex distribution were divided into 5 groups and administered p.o. with different doses of AHT-323 or cyclophosphamide once daily for 10 days. 24h after the last dosing, mice were sacrificed and peritoneal macrophage and spleen cells suspension were prepared to measure IL-1 and IL-6 activity, respectively.
Method of testing IL-1: IL-1 activity in peritoneal macrophages was measured with radio-ELISA and the result was shown in Table 18.

IL-6 = IL-6 activity in splenocytes after oral dosing (ELISA); type: in vivo, NIH mice; conditions: 0.02 g/kg p.o. once daily 10 days
Experimental: as §2

[4] = tested on: splenocyte lymphocytes stimulated by Con A; assay: Lymphocyte blastogenesis of normal mice stimulated by Con A (3H-TdR); type: in vivo, NIH mice; conditions: 0.02 g/kg p.o. once daily 10 days
Experimental: 50 NIH mice with equal sex distribution were randomly divided into 5 groups. The mice were treated p.o. with different doses of AHT-323 or positive control drug once daily for 10 days. Twenty four hours after the last dosing, mice were sacrificed. The splenocytes were obtained and Con A (Concanavalin) was used to stimulate lymphocytes for transformation. ^3H-TdR adulteration method was used and the result was shown in table 20.

CD4 and CD8 = CD4 and CD8 content of mouse splenocytes (biotin-labeled ELISA); type: in vivo, ICR mice; conditions: 0.02 g/kg once daily ten days
Experimental: (§3) Totals of 50 ICR mice weighing 18˜22 g with equal sex distribution were randomly divided into five groups. The mice were administrated orally with different doses of AHT-323 or positive control drug respectively, once daily for consecutive ten days. 24 hours after the last dosing, the mice were sacrificed and splenocyte suspension was prepared for measurement of CD4 and CD8 content and NK cells activity.

NK cells = NK cells activity of mouse splenocytes (colorimetry); type: in vivo, ICR mice; conditions: 0.02 g/kg once daily ten days
Experimental: as §3

[5] = tested on: writhing reaction of mice; assay: Writhing reaction induced by HAC; type: in vivo, Kunming mice; conditions: 0.01 g/kg once daily 3 days; first 20 minutes
Experimental: A total of 50 Kunming mice weighing 18-22 g with equal sex distribution were randomly divided into 5 groups. The mice were treated p.o. with different doses of AHT-323, tragacanth, or Morphine hydrochloride once daily for 3 days. One hour later, each mouse was treated with 0.2 ml saline containing 0.7% HAC, i.p. The time to first writhing and the number of writhing during the first 20 minutes were evaluated.

[6] = Mus musculus, 0 h, read-out: Inhibition rate (%)
[7] = Table 11, 0.1×3 g/kg, dosing day 0, 2, 4 each

## O=P1(N(CCCl)CCCl)NCCCO1 (stereo not drawn) [Cy, cyclophosphamide]
[1]; [6]
  inhibition at 20 mg/kg: 64.9%
  inhibition at 25 mg/kg: 29%
[1]; Mus musculus, read-out: Inhibition rate (%)
  inhibition at 250 mg/kg: -10.6%
[1]; Table 9, 0.020 g/kg, dosing day 0˜5
  % of ear Swelling: 5.4 ± 2.6%
[1]; Table 10, 0.025 g/kg, dosing day 0˜5
  % of ear Swelling: 32.8 ± 7.9%
[1]; [7]
  % of ear Swelling: 24.10 ± 7.28%
  Inhibition rate (%): 39.8%
[1]; Table 11, 0.25 g/kg, dosing day −3
  % of ear Swelling: 44.3 ± 7.9%
[2]; ICR mice
  Hymolysin Antibody: 28 ± 7
[2]; KM mice
  Hymolysin Antibody: 46 ± 18
[2]; Mus musculus, 0 h, ICR mice, read-out: Inhibition Rate (%)
  inhibition at 20 mg/kg: 77.4%
[2]; Mus musculus, 0 h, KM mice, read-out: Inhibition Rate (%)
  inhibition at 20 mg/kg: 81.1%
[2]; Mus musculus, 0 h, NIH mice, 0.25 g/kg, read-out: Inhibition Rate (%)
  inhibition at 250 mg/kg: 75.4%
[2]; NIH mice, 0.25 g/kg
  Hemolysin Antibody (HC50): 33 ± 8
[3]
  IgM (Log2): 6.950 ± 0.597 Log2
  PFC (OD415): 0.835 ± 0.015 OD415
TNFα
  TNFα: 42.2 ± 9.6 pg/mL
IL-2
  IL-2: 10.1 ± 3.0 IU/ml
IL-1
  IL-1: 44.5 ± 7.7 ng/mL
IL-6
  IL-6: 49.6 ± 6.7 IU/ml
[4]
  Cpm: 9922 ± 1145 Cpm
  Stimulate Index: 13.06 ± 2.28
CD4 and CD8
  CD4 (%): 11.50 ± 2.50 %
  CD4/CD8: 2.91 ± 0.53
  CD8 (%): 4.10 ± 1.20 %
NK cells
  NK Activity: 23.10 ± 3.66

## CN1CC[C@]23c4c5ccc(O)c4O[C@H]2[C@@H](O)C=C[C@H]3[C@H]1C5.Cl [Morphine, Morphine hydrochloride]
[5]
  Torsion number: 0.0 ± 0.0

From patent publication US20030008024A1, “Therapeutic composition of herbal extracts and the uses thereof” (Advanced Herbal Therapeutics, Inc., priority 2001, published 2003)
